Paper PMC7413254 (Nature Communications, 2020)
Where “and” joins values, the source holds several entries; their conditions need not be identical. Identical values can stand only once. Like-named read-outs stand apart in the source and are kept apart here.

Assays:
non-expressing oocytes [1] = assay: cells; format: cell-based, Xenopus laevis; conditions: Xenopus laevis, Oocyte
Outline: (§1)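 Oocytes expressing PfCRT isoforms, or non-expressing controls, were incubated 1.5 h at 27.5 °C in ND96 buffer pH 5.5 (96 mM NaCl, 2 mM KCl, 1 mM MgCl2, 1.8 mM CaCl2, 10 mM MES, 10 mM Tris-base), measuring uptake from acidic medium into cytosol. Oocytes were washed ice-cold, SDS-lysed and counted by scintillation.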

PfCRT^3D7 [2] = biological target: T1, PfCRT^3D7 (Plasmodium falciparum, UniProt Q8IBZ9); assay: cell-based; format: cell-based
T1 sequence (Q8IBZ9 59-398): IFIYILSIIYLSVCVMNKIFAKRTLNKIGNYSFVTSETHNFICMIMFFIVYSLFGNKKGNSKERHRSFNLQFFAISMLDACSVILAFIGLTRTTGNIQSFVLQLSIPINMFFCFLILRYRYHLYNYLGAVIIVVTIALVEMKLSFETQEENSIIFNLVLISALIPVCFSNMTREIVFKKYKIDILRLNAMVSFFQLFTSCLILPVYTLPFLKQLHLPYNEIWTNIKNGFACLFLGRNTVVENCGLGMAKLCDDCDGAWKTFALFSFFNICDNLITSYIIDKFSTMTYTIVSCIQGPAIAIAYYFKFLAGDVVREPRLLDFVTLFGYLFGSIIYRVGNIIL
Outline: as §1

PfCRT^Dd2 [3] = biological target: T2, PfCRT^Dd2 (Plasmodium falciparum, UniProt Q9N623, A220S/I356T/K76T/M74I/N326S/N75E/Q271E/R371I); assay: [3H]CQ uptake into Xenopus oocytes, cis-inhibition by unlabelled solute; format: cell-based
T2 sequence (Q9N623 whole entry A220S/I356T/K76T/M74I/N326S/N75E/Q271E/R371I): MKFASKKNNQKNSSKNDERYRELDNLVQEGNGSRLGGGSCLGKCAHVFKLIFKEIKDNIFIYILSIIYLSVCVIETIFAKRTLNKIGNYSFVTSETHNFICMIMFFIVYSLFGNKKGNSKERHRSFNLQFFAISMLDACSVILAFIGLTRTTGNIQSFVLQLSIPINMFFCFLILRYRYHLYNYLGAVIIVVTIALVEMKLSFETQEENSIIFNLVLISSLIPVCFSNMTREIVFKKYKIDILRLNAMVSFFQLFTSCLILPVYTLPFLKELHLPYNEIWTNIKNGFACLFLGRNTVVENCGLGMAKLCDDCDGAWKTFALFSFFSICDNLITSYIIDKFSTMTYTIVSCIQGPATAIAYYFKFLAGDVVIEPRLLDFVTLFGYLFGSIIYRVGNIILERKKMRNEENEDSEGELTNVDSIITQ
Outline: as §1

PfCRT^Ecu1110 [4] = biological target: T3, PfCRT^Ecu1110 (Plasmodium falciparum, UniProt Q9N623, A220S/I356L/K76T/N326D); assay: as above; format: cell-based
T3 sequence (Q9N623 whole entry A220S/I356L/K76T/N326D): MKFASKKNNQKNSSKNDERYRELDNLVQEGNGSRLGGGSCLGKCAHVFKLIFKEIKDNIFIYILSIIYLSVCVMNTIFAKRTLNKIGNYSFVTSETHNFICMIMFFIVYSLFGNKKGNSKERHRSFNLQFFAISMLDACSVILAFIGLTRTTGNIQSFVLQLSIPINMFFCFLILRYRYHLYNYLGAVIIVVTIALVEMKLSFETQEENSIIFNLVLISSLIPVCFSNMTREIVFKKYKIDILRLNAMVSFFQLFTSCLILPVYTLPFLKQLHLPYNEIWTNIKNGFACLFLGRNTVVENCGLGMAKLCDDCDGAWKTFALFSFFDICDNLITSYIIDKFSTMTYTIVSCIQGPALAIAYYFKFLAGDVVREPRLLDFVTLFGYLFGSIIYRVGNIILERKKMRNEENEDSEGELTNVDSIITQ
Outline: as §1

non-expressing oocytes [5] = format: cell-based, Xenopus laevis
Outline: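 Oocytes (ten per treatment, ≥4 independent frogs/days) were preloaded by injecting VF-6 in 25 nL ND96 at pH 5.0, 5.5, 6.0 or 7.0, or Na^+-free choline buffer, then uptake run 1.5 h, 27.5 °C, ND96 pH 5.5 by default. Internal concentrations assumed ~400 nL oocyte volume.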

PfCRT^3D7 [6] = biological target: T1, PfCRT^3D7; assay: cell-based; format: cell-based; remark: listed apart in the source
Outline: (§2)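 Transport measured in Xenopus oocytes expressing the transporters, 1.5 h at 27.5 °C in ND96 pH 5.5 unless noted. For trans-stimulation, VF-6 injected in 25 nL ND96 at pH 5.0–7.0 or Na^+-free (choline) buffer; intracellular levels based on ~400 nL oocyte volume. Ten oocytes per treatment, ≥4 experiments.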

PfCRT^Dd2 [7] = biological target: T2, PfCRT^Dd2; assay: cell-based; format: cell-based; conditions: […]; for activity at 45000 µM: [test solute]i = 45 mM (30 mM for some solutes due to solubility)
Outline: as §2

PfCRT^Ecu1110 [8] = biological target: T3, PfCRT^Ecu1110; assay: cell-based; format: cell-based; conditions: […]
Outline: as §2

PfNT1 = biological target: T4, PfNT1 (Plasmodium falciparum, UniProt Q8IDM6); assay: cell-based; format: cell-based; conditions: […]
T4 construct: expressed in transfected cells; host or cells: Xenopus laevis oocytes (stage V-VI), cRNA-injected
T4 sequence (Q8IDM6 whole entry): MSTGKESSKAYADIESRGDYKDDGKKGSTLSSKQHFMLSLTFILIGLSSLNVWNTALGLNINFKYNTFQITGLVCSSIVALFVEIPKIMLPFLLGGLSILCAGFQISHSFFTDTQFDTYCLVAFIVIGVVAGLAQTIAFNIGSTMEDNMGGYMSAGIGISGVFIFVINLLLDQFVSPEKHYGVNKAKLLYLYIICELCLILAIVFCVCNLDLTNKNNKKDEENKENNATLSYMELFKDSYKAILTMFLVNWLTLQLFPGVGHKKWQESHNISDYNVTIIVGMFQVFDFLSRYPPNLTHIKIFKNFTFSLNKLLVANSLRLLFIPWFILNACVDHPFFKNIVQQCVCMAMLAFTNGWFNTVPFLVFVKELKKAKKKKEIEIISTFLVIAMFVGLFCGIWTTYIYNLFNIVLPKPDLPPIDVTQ
Outline: as §2

PfCRT [9] = assay: Test of solutes as potential co-substrates for influx of VF-6 via PfCRT into the oocyte; format: cell-based, Plasmodium falciparum; set-up: key: X: Compounds that have been tested as potential co-substrates but are not required for influx of VF-6 via PfCRT into the oocyte; conditions: X = tested
PfCRT [10] = assay: Potential co-substrates tested for influx of VF-6 via PfCRT into the oocyte; format: cell-based, Plasmodium falciparum; set-up: key: X: Compounds that have been tested as potential co-substrates but are not required for influx of VF-6 via PfCRT into the oocyte
[11] = read-out: Uptake of [3H]CQ (% PfCRTDd2 control), cis-inhibition, non-expressing oocytes, SEM
[12] = read-out: Uptake of [3H]CQ (% non-expressing oocyte control), cis-inhibition
[13] = read-out: Uptake of [3H]CQ (% PfCRT3D7 control), cis-inhibition
[14] = read-out: Uptake of [3H]CQ (% PfCRTDd2 control), cis-inhibition, PfCRT3D7, SEM
[15] = read-out: PfCRT-mediated [3H]CQ transport, cis-inhibition (% PfCRTDd2 control)
[16] = read-out: Uptake of [3H]CQ (% PfCRTDd2 control), cis-inhibition, PfCRTDd2, SEM
[17] = read-out: PfCRT-mediated [3H]CQ transport, cis-inhibition (% PfCRTEcu1110 control)
[18] = read-out: Uptake of [3H]CQ (% PfCRTDd2 control), cis-inhibition, PfCRTEcu1110, SEM
[19] = read-out: Uptake of [3H]CQ (% PfCRTEcu1110 control), cis-inhibition
[20] = read-out: [3H]CQ transport (% PfCRTEcu1110 control), cis-inhibition, PfCRTEcu1110, SEM
[21] = read-out: PfCRT-mediated [3H]CQ transport, trans-stimulation (% PfCRT3D7 control)
[22] = read-out: Uptake of [3H]CQ (% PfCRT3D7 control), trans-stimulation
[23] = read-out: Uptake of [3H]CQ (% PfCRTDd2 control), trans-stimulation, PfCRT3D7, SEM
[24] = read-out: Uptake of [3H]CQ (% PfCRTDd2 control), trans-stimulation, PfNT1, SEM
[25] = read-out: Uptake of [3H]CQ (% PfNT1 control), trans-stimulation

N[C@@H](Cc1ccc(O)cc1)C(=O)O [L-tyrosine]
inhibition at 500 µM (non-expressing oocytes [1]; [11]): 2.5 ± 0.03% | inhibition at 1000 µM (non-expressing oocytes [1]; [11]): 4.2 ± 0.03% | inhibition at 2000 µM (non-expressing oocytes [1]; [11]): 2.9 ± 0.04% | inhibition at 500 µM (non-expressing oocytes [1]; [12]): 96 ± 4.2% | inhibition at 1000 µM (non-expressing oocytes [1]; [12]): 99 ± 5.3% | inhibition at 2000 µM (non-expressing oocytes [1]; [12]): 101 ± 3.9% | inhibition at 500 µM (PfCRT^3D7 [2]; [13]): 99 ± 4.7% | inhibition at 1000 µM (PfCRT^3D7 [2]; [13]): 101 ± 3.8% | inhibition at 2000 µM (PfCRT^3D7 [2]; [13]): 99 ± 4.7% | inhibition at 500 µM (PfCRT^3D7 [2]; [14]): 2.8 ± 0.07% | inhibition at 1000 µM (PfCRT^3D7 [2]; [14]): 2.5 ± 0.04% | inhibition at 2000 µM (PfCRT^3D7 [2]; [14]): 3.1 ± 0.03% | inhibition at 500 µM (PfCRT^Dd2 [3]; [15]): 94 ± 4.6% | inhibition at 2000 µM (PfCRT^Dd2 [3]; [15]): 97 ± 3.5% | inhibition at 500 µM (PfCRT^Dd2 [3]; [16]): 96 ± 3.2% | inhibition at 1000 µM (PfCRT^Dd2 [3]; [16]): 98 ± 2.3% | inhibition at 2000 µM (PfCRT^Dd2 [3]; [16]): 99 ± 1.4% | inhibition at 500 µM (PfCRT^Ecu1110 [4]; [17]): 96 ± 5.3% | inhibition at 2000 µM (PfCRT^Ecu1110 [4]; [17]): 95 ± 3.4% | inhibition at 500 µM (PfCRT^Ecu1110 [4]; [18]): 32 ± 1% | inhibition at 1000 µM (PfCRT^Ecu1110 [4]; [18]): 32 ± 1.1% | inhibition at 2000 µM (PfCRT^Ecu1110 [4]; [18]): 32 ± 1.7% | inhibition at 500 µM (PfCRT^Ecu1110 [4]; [19]): 99 ± 1.4% | inhibition at 1000 µM (PfCRT^Ecu1110 [4]; [19]): 101 ± 1.4% | inhibition at 2000 µM (PfCRT^Ecu1110 [4]; [19]): 97 ± 1.5% | inhibition at 500 µM (PfCRT^Ecu1110 [4]; [20]): 29 ± 0.7% | inhibition at 1000 µM (PfCRT^Ecu1110 [4]; [20]): 29 ± 1.5% | inhibition at 2000 µM (PfCRT^Ecu1110 [4]; [20]): 29 ± 0.5% | Uptake of [3H]CQ (% non-expressing oocyte control), trans-stimulation (non-expressing oocytes [5]): 99 ± 3.3 % non-expressing oocyte control and 98 ± 4.2 % non-expressing oocyte control | Uptake of [3H]CQ (% PfCRTDd2 control), trans-stimulation, non-expressing oocytes (non-expressing oocytes [5]; SEM): 2.4 ± 0.01 % PfCRTDd2 control and 2.5 ± 0.01 % PfCRTDd2 control | [3H]CQ transport (% PfCRT3D7 control), trans-stimulation, PfCRT3D7 (PfCRT^3D7 [6]; SEM): 0.3 ± 0.04 % PfCRT3D7 control | activity at 5000 µM (PfCRT^3D7 [6]; [21]): 97 ± 3.4% | activity at 45000 µM (PfCRT^3D7 [6]; [21]): 98 ± 2.2% | activity at 5000 µM (PfCRT^3D7 [6]; [22]): 99 ± 2.2% | activity at 45000 µM (PfCRT^3D7 [6]; [22]): 100 ± 2.4% | activity at 5000 µM (PfCRT^3D7 [6]; [23]): 3.3 ± 0.04% | activity at 45000 µM (PfCRT^3D7 [6]; [23]): 3.3 ± 0.01% | activity at 5000 µM (PfCRT^Dd2 [7]; pH 5.5, read-out: PfCRT-mediated [3H]CQ transport, trans-stimulation (% PfCRTDd2 control), [test solute]i = 5 mM (intracellular), PfCRTDd2 oocytes, normalised to oocyte type control): 99 ± 2.6% | activity at 5000 µM (PfCRT^Dd2 [7]; pH 5.5, read-out: Uptake of [3H]CQ (% PfCRTDd2 control), trans-stimulation, PfCRTDd2, total [3H]CQ transport, [test solute]i = 5 mM (intracellular), mean ± SEM, SEM): 101 ± 3.3% | activity at 5000 µM (PfCRT^Dd2 [7]; pH 5.5, read-out: Uptake of [3H]CQ (% PfCRTDd2 control), trans-stimulation, PfCRTDd2 oocytes, [test solute]i = 5 mM, total [3H]CQ transport, normalised to the oocyte type control): 101 ± 3.3% | activity at 45000 µM (PfCRT^Dd2 [7]; pH 5.5, read-out: Uptake of [3H]CQ (% PfCRTDd2 control), trans-stimulation, PfCRTDd2 oocytes, total [3H]CQ transport, normalised to the oocyte type control): 96 ± 2.4% | activity at 5000 µM (PfCRT^Dd2 [7]; pH 5.5, read-out: [3H]CQ transport (% PfCRTDd2 control), trans-stimulation, PfCRTDd2, trans-stimulation, [test solute]i = 5 mM (injected), PfCRT-mediated component (background subtracted), mean ± SEM, SEM): 99 ± 2.6% | activity at 45000 µM (PfCRT^Dd2 [7]; pH 5.5, read-out: [3H]CQ transport (% PfCRTDd2 control), trans-stimulation, PfCRTDd2, trans-stimulation, PfCRT-mediated component (background subtracted), mean ± SEM, SEM): 94 ± 3.3% | activity at 5000 µM (PfCRT^Ecu1110 [8]; pH 5.5, read-out: PfCRT-mediated [3H]CQ transport, trans-stimulation (% PfCRTEcu1110 control), [test solute]i = 5 mM (intracellular), PfCRTEcu1110 oocytes, normalised to oocyte type control): 97 ± 1.8% | activity at 5000 µM (PfCRT^Ecu1110 [8]; pH 5.5, read-out: Uptake of [3H]CQ (% PfCRTEcu1110 control), trans-stimulation, PfCRTEcu1110 oocytes, [test solute]i = 5 mM, total [3H]CQ transport, normalised to the oocyte type control): 99 ± 2.6% | activity at 45000 µM (PfCRT^Ecu1110 [8]; pH 5.5, read-out: Uptake of [3H]CQ (% PfCRTEcu1110 control), trans-stimulation, PfCRTEcu1110 oocytes, [test solute]i = 45 mM (30 mM for some solutes due to solubility), total [3H]CQ transport, normalised to the oocyte type control): 100 ± 3.1% | activity at 5000 µM (PfCRT^Ecu1110 [8]; read-out: Uptake of [3H]CQ (% PfCRTDd2 control), trans-stimulation, PfCRTEcu1110, total [3H]CQ transport, [test solute]i = 5 mM (intracellular), mean ± SEM, SEM): 35 ± 2.1% | activity at 45000 µM (PfCRT^Ecu1110 [8]; read-out: Uptake of [3H]CQ (% PfCRTDd2 control), trans-stimulation, PfCRTEcu1110, total [3H]CQ transport, [test solute]i = 45 mM (intracellular; 30 mM for some solutes due to solubility), mean ± SEM, SEM): 36 ± 1.8% | activity at 5000 µM (PfNT1; [24]): 2.2 ± 0.02% | activity at 45000 µM (PfNT1; [24]): 2.2 ± 0.02% | activity at 5000 µM (PfNT1; [25]): 100 ± 3.7% | activity at 45000 µM (PfNT1; [25]): 99 ± 2.2% | Tested as potential co-substrate but not required for influx of VF-6 via PfCRT into the oocyte (PfCRT [9]): X | Tested as potential co-substrate but not required for influx of VF-6 via PfCRT into the oocyte (PfCRT [10]): X
